These results are taken from US20100062477A1, “METHODS OF ISOLATING AND PROPAGATING STEM CELLS FROM BENIGN TUMORS” (CEDARS-SINAI MEDICAL CENTER, priority 2006, published 2010).

The assay deals with Pituitary tumor stem cells and adherent daughter cells. As to the kind of experiment: WST-1 proliferation assay of resistance to chemotherapeutic treatment. Type of assay: cell-based, human. The following applies: 50 μM carboplatin and 12.5 μM VP16 for 48 h; stem cells compared with adherent cells. The protocol:
Pituitary tumor stem cells and adherent daughter cells were also tested for the resistance to chemotherapeutic treatment. Cells were treated with 50 μM carboplatin and 12.5 μM VP16 for 48 h and the toxicity was assessed by WST-1 proliferation assay.

As for `N.N.O=C([O-])C1(C(=O)[O-])CCC1.[Pt+2]` [carboplatin], the “toxicity assessed by WST-1 proliferation assay (resistance of pituitary tumor stem cells vs adherent daughter cells)” value is “significantly more resistant than the adherent cells”. To `COc1cc([C@@H]2c3cc4c(cc3[C@@H](O[C@@H]3O[C@@H]5CO[C@@H](C)O[C@H]5[C@H](O)[C@H]3O)[C@H]3COC(=O)[C@H]23)OCO4)cc(OC)c1O` [VP16] belongs “significantly more resistant than the adherent cells”.
